Reference: PubChem BioAssay (NCI)
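Interpolation was linear, between the two tested concentrations surrounding the appropriate level; five concentrations were tested over 48 hours in 96-well plates. GI50 = concentration required for 50% inhibition of growth. The concentration for full growth arrest is given as TGI.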 *1 amine or outer side, *2 acyl side, *3 side chain or, on linkers, in order; H or OH if unused. Where a SMILES comes first, the peptide text is derived from it. Bridges are numbered along the chain shown (N, C = ends). [ ]: non-standard residue; d: D form. The star is where a group is joined. ξ: configuration not given here. ξOrn(4,5-diOH) = O=C(C(CC(O)C(O)N[*:3])N[*:1])[*:2]; ξhTyr(βξ-OH,γξ-OH) = NC(C(=O)O)C(O)C(O)c1ccc(O)cc1; ξPro(3ξ-OH,4ξ-Me) = CC1CNC(C(=O)O)C1O; X22 = CCCCC/C=C/C/C=C\CCCCCCCC(=O)*; Hyp = O=C(O)[CH]1C[CH](O)CN1

Tests used:
Experiment in all cases: growth of human tumour cells (NCI), 48 h
HOP-92 NSCLC = test system: HOP-92 NSCLC
NCI-H23 lung = test system: NCI-H23 lung
BT-549 breast = test system: BT-549 breast
UACC-257 melanoma = test system: UACC-257 melanoma
NCI-H460 lung = test system: NCI-H460 lung
RXF 393 renal = test system: RXF 393 renal
OVCAR-3 ovarian = test system: OVCAR-3 ovarian
A498 renal = test system: A498 renal
OVCAR-4 ovarian = test system: OVCAR-4 ovarian
MOLT-4 leukemia = test system: MOLT-4 leukemia
SNB-19 CNS = test system: SNB-19 CNS
MDA-MB-231 breast = test system: MDA-MB-231 breast
DU-145 prostate = test system: DU-145 prostate
SNB-75 CNS = test system: SNB-75 CNS
HS 578T breast = test system: HS 578T breast
ACHN renal = test system: ACHN renal
OVCAR-8 ovarian = test system: OVCAR-8 ovarian
CCRF-CEM leukemia = test system: CCRF-CEM leukemia
SN12C renal = test system: SN12C renal
HOP-62 NSCLC = test system: HOP-62 NSCLC
A549 NSCLC = test system: A549 NSCLC
SF-539 CNS = test system: SF-539 CNS
IGROV1 ovarian = test system: IGROV1 ovarian
COLO 205 colon = test system: COLO 205 colon
SF-268 CNS = test system: SF-268 CNS
SR leukemia = test system: SR leukemia
OVCAR-5 ovarian = test system: OVCAR-5 ovarian
KM12 colon = test system: KM12 colon
M14 melanoma = test system: M14 melanoma
MDA-MB-435 = test system: MDA-MB-435
786-0 renal = test system: 786-0 renal
HL-60(TB) leukemia = test system: HL-60(TB) leukemia
HCC-2998 colon = test system: HCC-2998 colon
T-47D breast = test system: T-47D breast
MCF7 breast = test system: MCF7 breast
HCT-15 colon = test system: HCT-15 colon
HT29 colon = test system: HT29 colon
UACC-62 melanoma = test system: UACC-62 melanoma
U251 CNS = test system: U251 CNS
MALME-3M melanoma = test system: MALME-3M melanoma
NCI-H226 lung = test system: NCI-H226 lung
SK-MEL-28 melanoma = test system: SK-MEL-28 melanoma
K-562 leukemia = test system: K-562 leukemia
SK-OV-3 ovarian = test system: SK-OV-3 ovarian
NCI/ADR-RES ovarian = test system: NCI/ADR-RES ovarian
UO-31 renal = test system: UO-31 renal
EKVX NSCLC = test system: EKVX NSCLC
SK-MEL-2 melanoma = test system: SK-MEL-2 melanoma
TK-10 renal = test system: TK-10 renal
RPMI-8226 leukemia = test system: RPMI-8226 leukemia
PC-3 prostate = test system: PC-3 prostate
LOX IMVI melanoma = test system: LOX IMVI melanoma
CAKI-1 renal = test system: CAKI-1 renal
HCT-116 colon = test system: HCT-116 colon
SK-MEL-5 melanoma = test system: SK-MEL-5 melanoma
SW-620 colon = test system: SW-620 colon
NCI-H522 lung = test system: NCI-H522 lung
SF-295 CNS = test system: SF-295 CNS

## CCCCC/C=C/C/C=C\CCCCCCCC(=O)NC1CC(O)C(O)NC(=O)C2C(O)C(C)CN2C(=O)C(C(C)O)NC(=O)C(C(O)C(O)c2ccc(O)cc2)NC(=O)C2CC(O)CN2C(=O)C(C(C)O)NC1=O (stereo not drawn) (X22-[ξOrn(4,5-diOH)]T[Hyp][ξhTyr(βξ-OH,γξ-OH)]T[ξPro(3ξ-OH,4ξ-Me)]; lactam 1-C; configuration not given here)
HOP-92 NSCLC
  TGI: > 100000 nM
NCI-H23 lung
  TGI: > 100000 nM
BT-549 breast
  TGI: > 100000 nM
UACC-257 melanoma
  TGI: > 100000 nM

## COc1ccccc1CNCCCN1C(=O)c2ccc3c4c(ccc(c24)C1=O)C(=O)N(CCCNCc1ccccc1OC)C3=O
NCI-H460 lung
  GI50: 167 nM
  TGI: 421 nM
RXF 393 renal
  GI50: 142 nM
  TGI: 281 nM
OVCAR-3 ovarian
  GI50: 85 nM
  TGI: 218 nM
A498 renal
  GI50: 1210 nM
  TGI: 2500 nM
OVCAR-4 ovarian
  GI50: 101 nM
  TGI: 231 nM
MOLT-4 leukemia
  GI50: 112 nM
  TGI: 455 nM
SNB-19 CNS
  GI50: 159 nM
  TGI: 347 nM
MDA-MB-231 breast
  GI50: 227 nM
  TGI: 867 nM
DU-145 prostate
  GI50: 163 nM
  TGI: 309 nM
SNB-75 CNS
  GI50: 283 nM
  TGI: 754 nM
HOP-92 NSCLC
  GI50: 243 nM
  TGI: 847 nM
HS 578T breast
  GI50: 590 nM
  TGI: 2130 nM
ACHN renal
  GI50: 170 nM
  TGI: 555 nM
OVCAR-8 ovarian
  GI50: 137 nM
  TGI: 2260 nM
CCRF-CEM leukemia
  GI50: 194 nM
  TGI: 2000 nM
SN12C renal
  GI50: 151 nM
  TGI: 305 nM
HOP-62 NSCLC
  GI50: 192 nM
  TGI: 633 nM
A549 NSCLC
  GI50: 200 nM
  TGI: 460 nM
NCI-H23 lung
  GI50: 179 nM
  TGI: 443 nM
SF-539 CNS
  GI50: 221 nM
  TGI: 612 nM
IGROV1 ovarian
  GI50: 148 nM
  TGI: 399 nM
COLO 205 colon
  GI50: 121 nM
  TGI: 256 nM
SF-268 CNS
  GI50: 257 nM
  TGI: 834 nM
SR leukemia
  GI50: 264 nM
  TGI: 928 nM
OVCAR-5 ovarian
  GI50: 225 nM
  TGI: 597 nM
KM12 colon
  GI50: 116 nM
  TGI: 272 nM
M14 melanoma
  GI50: 179 nM
  TGI: 337 nM
MDA-MB-435
  GI50: 179 nM
  TGI: 349 nM
786-0 renal
  GI50: 257 nM
  TGI: 703 nM
HL-60(TB) leukemia
  GI50: 212 nM
  TGI: 453 nM
HCC-2998 colon
  GI50: 166 nM
  TGI: 328 nM
T-47D breast
  GI50: 188 nM
  TGI: 420 nM
MCF7 breast
  GI50: 108 nM
  TGI: 329 nM
HCT-15 colon
  GI50: 191 nM
  TGI: 465 nM
HT29 colon
  GI50: 136 nM
  TGI: 425 nM
UACC-62 melanoma
  GI50: 198 nM
  TGI: 407 nM
BT-549 breast
  GI50: 348 nM
  TGI: 895 nM
U251 CNS
  GI50: 164 nM
  TGI: 447 nM
MALME-3M melanoma
  GI50: 155 nM
  TGI: 320 nM
NCI-H226 lung
  GI50: 362 nM
  TGI: 1320 nM
SK-MEL-28 melanoma
  GI50: 436 nM
  TGI: 876 nM
K-562 leukemia
  GI50: 265 nM
  TGI: 830 nM
SK-OV-3 ovarian
  GI50: 352 nM
  TGI: 1000 nM
NCI/ADR-RES ovarian
  GI50: 1190 nM
  TGI: 4540 nM
UO-31 renal
  GI50: 196 nM
  TGI: 458 nM
EKVX NSCLC
  GI50: 168 nM
  TGI: 343 nM
SK-MEL-2 melanoma
  GI50: 203 nM
  TGI: 427 nM
TK-10 renal
  GI50: 170 nM
  TGI: 466 nM
RPMI-8226 leukemia
  GI50: 274 nM
  TGI: 799 nM
PC-3 prostate
  GI50: 214 nM
  TGI: 608 nM
LOX IMVI melanoma
  GI50: 135 nM
  TGI: 365 nM
CAKI-1 renal
  GI50: 233 nM
  TGI: 725 nM
HCT-116 colon
  GI50: 80.5 nM
  TGI: 274 nM
SK-MEL-5 melanoma
  GI50: 155 nM
  TGI: 290 nM
SW-620 colon
  GI50: 86.1 nM
  TGI: 298 nM
UACC-257 melanoma
  GI50: 184 nM
  TGI: 349 nM
NCI-H522 lung
  GI50: 145 nM
  TGI: 307 nM
SF-295 CNS
  GI50: 213 nM
  TGI: 666 nM
